Assay results as given in the supplement of paper PMC10920090.

Assays:
MDA-MB-231 [1] = assay: drug sensitivity score (DSS), cytotoxicity CellTox Green; higher = more cytotoxic; extreme values may be limits of the assay; details: 72 h
MDA-MB-231 [2] = assay: drug sensitivity score (DSS), cell viability CellTiter-Glo; higher = more sensitive; extreme values may be limits of the assay; details: 72 h
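Wherever drug sensitivity score (DSS), cytotoxicity CellTox Green is given: DSS summarises each dose–response curve by combining IC50, EC50, maximal inhibition and efficacy across drug concentrations.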

SMILES | drug sensitivity score (MDA-MB-231 [1]; shRNA: shPPFIA1_1) | drug sensitivity score (MDA-MB-231 [1]; shRNA: shScramble) | drug sensitivity score (MDA-MB-231 [2]; shRNA: shPPFIA1_1) | drug sensitivity score (MDA-MB-231 [2]; shRNA: shScramble)
Cc1c2oc3c(C)ccc(C(=O)N[C@@H]4C(=O)N[C@H](C(C)C)C(=O)N5CCC[C@H]5C(=O)N(C)CC(=O)N(C)[C@@H](C(C)C)C(=O)O[C@@H]4C)c3nc-2c(C(=O)N[C@@H]2C(=O)N[C@H](C(C)C)C(=O)N3CCC[C@H]3C(=O)N(C)CC(=O)N(C)[C@@H](C(C)C)C(=O)O[C@@H]2C)c(N)c1=O [Dactinomycin] | 14.9 DSS | 12.4 DSS | 14.1 DSS | 25.9 DSS
NS(=O)(=O)OC[C@@H]1C[C@@H](n2ccc3c(N[C@H]4CCc5ccccc54)ncnc32)C[C@@H]1O [Pevonedistat] | 7.6 DSS | 7 DSS | 16.9 DSS | 10.6 DSS
Nc1nc(N)c2nc(-c3cccc(O)c3)c(-c3cccc(O)c3)nc2n1 [TG100-115] | 0 DSS | 0 DSS | 5.7 DSS | 19 DSS
CN1CCN(CCOc2cc(OC3CCOCC3)c3c(Nc4c(Cl)ccc5c4OCO5)ncnc3c2)CC1 [Saracatinib] | 2.5 DSS | 1.3 DSS | 2.9 DSS | 2.7 DSS
C[C@H]1C[C@@H]2[C@H]([C@@H](O)C[C@@]3(C)[C@H]2CC[C@]3(O)C(=O)CO)[C@@]2(C)C=CC(=O)C=C12 [Methylprednisolone] | 0 DSS | 0 DSS | 0 DSS | 0 DSS
Cc1nc(NC(=O)N2CCC[C@H]2C(N)=O)sc1-c1ccnc(C(C)(C)C(F)(F)F)c1 [Alpelisib] | 0 DSS | 0 DSS | 1.5 DSS | 0 DSS
CC(=O)c1cnc2ccc(-c3cc(Cl)c(O)c(Cl)c3)nc2c1N[C@H]1CC[C@H](CN(C)C)CC1 [OTSSP167] | 0 DSS | 0.2 DSS | 22.4 DSS | 9.1 DSS
COc1cc(OC)c(/C=C/S(=O)(=O)Cc2ccc(OC)c(NCC(=O)O)c2)c(OC)c1 [Rigosertib] | 2.4 DSS | 2.4 DSS | 0 DSS | 5.3 DSS
COc1ccc(Cl)c(Nc2nc3ccccc3nc2NS(=O)(=O)c2cccc(NC(=O)C(C)(C)N)c2)c1 [Pilaralisib] | 0.9 DSS | 0 DSS | 0 DSS | 0.9 DSS
CNCc1ccc(-c2[nH]c3cc(F)cc4c3c2CCNC4=O)cc1 [Rucaparib] | 0 DSS | 0 DSS | 0 DSS | 0 DSS
O=C(Nc1cc(Cl)cc2c1[nH]c1cnccc12)c1cccnc1 [PS-1145] | 0 DSS | 0.3 DSS | 0.9 DSS | 0.9 DSS
CC/C(=C(\c1ccc(O)cc1)c1ccc(OCCN(C)C)cc1)c1ccccc1 [4-hydroxytamoxifen] | 2.2 DSS | 3.3 DSS | 2.7 DSS | 4.8 DSS
CN(C)Cc1ccc(S(=O)(=O)n2ccc(/C=C/C(=O)NO)c2)cc1 [Resminostat] | 7.5 DSS | 4.4 DSS | 2.5 DSS | 7.1 DSS
C/C(=C\c1csc(C)n1)[C@@H]1C[C@@H]2O[C@]2(C)CCC[C@H](C)[C@H](O)[C@@H](C)C(=O)C(C)(C)[C@@H](O)CC(=O)N1 [Ixabepilone] | 3.8 DSS | 3.1 DSS | 0 DSS | 5 DSS
Cn1cc(-c2ccc3nnc(C(F)(F)c4ccc5ncccc5c4)n3n2)cn1 | 0 DSS | 0 DSS | 0 DSS | 6.9 DSS
COc1ccc2c(OCc3nnc4ccc(-c5ccccc5)nn34)ccnc2c1 [AMG-208] | 0 DSS | 0 DSS | 1.9 DSS | 8.6 DSS

SMILES | drug sensitivity score (MDA-MB-231 [1]; shRNA: shPPFIA1_1) | drug sensitivity score (MDA-MB-231 [1]; shRNA: shScramble) | drug sensitivity score (MDA-MB-231 [2]; shRNA: shPPFIA1_1) | drug sensitivity score (MDA-MB-231 [2]; shRNA: shScramble)
CC[C@H](C)C(=O)O[C@H]1C[C@H](O)C=C2C=C[C@H](C)[C@H](CC[C@@H](O)C[C@@H](O)CC(=O)O)[C@H]21 [Pravastatin] | 0 DSS | 0 DSS | 2.5 DSS | 1.8 DSS
CNc1nc(-c2ccc3c(N)n[nH]c3c2)cc(N2C[C@@H](C(=O)NC3CCCCC3)CC[C@H]2C)n1 | 0 DSS | 0 DSS | 0 DSS | 3.6 DSS
Cc1ccc(NC(=O)c2ccc(CN3CC[C@H](N(C)C)C3)c(C(F)(F)F)c2)cc1Nc1nccc(-c2cncnc2)n1 [Bafetinib] | 0.6 DSS | 0.5 DSS | 0 DSS | 4.3 DSS
O=NN(CCCl)C(=O)NCCCl [Carmustine] | 0 DSS | 0 DSS | 0 DSS | 0 DSS
Nc1ncnc2c1nc(Cl)n2[C@@H]1O[C@H](CO)[C@@H](O)[C@H]1O [8-chloro-adenosine] | 0.9 DSS | 0 DSS | 1.3 DSS | 10.6 DSS
Nc1cccc2c1C(=O)N(C1CCC(=O)NC1=O)C2=O (centres undefined) [Pomalidomide] | 0 DSS | 0 DSS | 0 DSS | 0 DSS
CNC(=O)c1ccccc1Nc1cc(Nc2ccc(N3CCOCC3)cc2OC)ncc1C(F)(F)F [VS-4718] | 0 DSS | 0 DSS | 0 DSS | 0 DSS
C#Cc1cccc(Nc2ncnc3cc4c(cc23)OCCOCCOCCO4)c1 [Icotinib] | 0 DSS | 0 DSS | 6.2 DSS | 3 DSS
CS(=O)(=O)c1ccc(C(=O)Nc2ccc(Cl)c(-c3ccccn3)c2)c(Cl)c1 [Vismodegib] | 2.2 DSS | 0 DSS | 0 DSS | 0 DSS
NC(=O)c1ccc(I)c([N+](=O)[O-])c1 [Iniparib] | 0 DSS | 0 DSS | 0 DSS | 0 DSS
NC(=S)N/N=C/c1ncccc1N [Triapine] | 0 DSS | 0 DSS | 0 DSS | 1.2 DSS
Cn1cnc2c(F)c(Nc3ccc(Br)cc3Cl)c(C(=O)NOCCO)cc21 [Selumetinib] | 3.8 DSS | 8 DSS | 0.3 DSS | 5.2 DSS
Nc1nc(F)nc2c1ncn2[C@@H]1O[C@H](CO)[C@@H](O)[C@@H]1O [Fludarabine] | 0 DSS | 0 DSS | 0.4 DSS | 2.5 DSS
CCc1cc(Nc2nccc(-c3c(-c4ccc(OC)c(C(=O)Nc5c(F)cccc5F)c4)nc4ccccn34)n2)c(OC)cc1N1CCC(N2CCN(S(C)(=O)=O)CC2)CC1 | 0 DSS | 0 DSS | 2.9 DSS | 2.4 DSS
CCc1nc(-c2cccc(C)c2)c(-c2ccnc(NC(=O)c3ccccc3)c2)s1 [TAK-715] | 0.3 DSS | 0 DSS | 0 DSS | 0.8 DSS
